From patent US20090170940A1 (priority 2007, published 2009)
Where a name gives a salt, the structure may show the parent alone.

Key:
humans = conditions: cited from earlier work

CNC(=O)Oc1cccc2c1OC(C)(C)C2 [Furadan, 2,3-dihydro-2,2-dimethyl-7-benzofuranyl methylcarbamate]
amount that can be fatal (humans): 1 mL
% Eclosion (nematode eggs): 0.05%

CCOC=O [ethyl formate]
% Eclosion (nematode eggs): 0.05%
